Experimental data: patent US20230069590A1, “CONCENTRATED SODIUM VALPROATE FOR RAPID DELIVERY” (priority 2020, published 2023)
Where “and” joins values, the source holds several entries; their conditions need not be identical. Equal entries are not always repeated. Where two headings read alike, the source gives them in different places.

Key:
[1] = Pharmacokinetic Analysis (TABLE 1 in Example 1); type: in vivo, swine
[2] = Serum VPA after IO versus IV infusion (Example 2); type: in vivo; conditions: swine, 150 mg/kg over 3 hours
Procedure: At the end of the shock phase, in order to simulate available resuscitative fluids available in a field care setting, all animals were resuscitated with normal saline via the femoral venous catheter with a standardized volume that was three times the hemorrhaged volume delivered over 1 hour. […] Placement of the needle was confirmed by aspiration of marrow and subsequent flush of 10 mL normal saline without extravasation. […] To simulate a delayed transfer to definitive care, 3 hours after the start of normal saline resuscitation, animals were transfused autologous packed red blood cells that were hemorrhaged earlier in the experiment. Animals were then monitored for another 4 hours to the predetermined end point. […] Arterial blood gases were drawn from the femoral arterial line serially throughout the experiment.
GraphPad Prism v8 was used to analyze data (GraphPad Software, San Diego, Calif.).

[3] = Further experiments: infusion of 150 mg/kg over 1 hour, hemodynamic effects; type: in vivo; conditions: 150 mg/kg delivered over 1 hour
[4] = system: non-lethal TBI and hemorrhagic shock; conditions: 150 mg/kg; cited from earlier work
[5] = system: lethal model of polytrauma, HS and TBI; assay: Survival in lethal swine model of polytrauma, hemorrhage and TBI (Example 1); type: in vivo
Description: (§1) Bilateral 5-Fr 11-cm arterial catheters and an 8-Fr 11-cm central venous catheter (Super Sheath, Boston Scientific Corporation, Marlborough, Mass.) were placed by femoral cutdown for arterial pressure monitoring, controlled arterial hemorrhage and central venous normal saline (NS; 0.9% sodium chloride solution) administration. An open cystostomy tube was placed for urine output monitoring. The right external jugular vein was then accessed percutaneously under ultrasound guidance, and a pulmonary artery catheter was placed for monitoring of pulmonary artery pressure and cardiac output.
A 5 cm segment of the left rectus muscle was exposed and crushed using a Kelly clamp to create a soft tissue injury. Femur fracture and liver injury were performed as previously described (Ref. 20; incorporated by reference in its entirety). The mid-femur was exposed and fractured with a 22-gauge captive bolt gun (Ramset Mastershot, Glendale Heights, Ill.) fired point-blank on the femur. A reproducible grade V liver laceration was created with a liver crunch device placed 1 cm lateral to the porta and 7 cm posterior on the dome of the liver. After laceration the liver was allowed to bleed freely for 30 seconds. […] Laparotomy pads were weighed at the end of the experiment to confirm a consistent liver injury (500±50 mL hemorrhage volume).
(§2) The animal was then flipped prone in preparation for TBI and additional hemorrhage. TBI was made by controlled cortical impact (Ref. 21; incorporated by reference in its entirety). A skin flap was raised on the anterior skull to expose the bregma, followed by a 21 mm burr hole on the right side next to the coronal and sagittal sutures to expose the dura. The computer controlled cortical impactor (University of Michigan Innovation Center, Ann Arbor, Mich.) was fired to produce a 10-mm depth injury. A 5-mm burr hole was made on the left for placement of the intracranial pressure (ICP) probe.
Concurrent with TBI, 40% estimated total blood volume was withdrawn over 20 minutes using a Masterflex pump (Cole-Palmer, Vernon Hills, Ill.). The initial 20% blood volume was removed over the first 7 minutes, followed by an additional 20% blood volume at a slower rate over the subsequent 13 minutes. […] Mean arterial pressure (MAP) was maintained between 30-35 mmHg by adjusting the inhaled isoflurane, pausing hemorrhage if MAP persisted <30 mm Hg and giving 50-100 mL fluid boluses of NS.
After completion of hemorrhage, a one-hour shock phase began. This one hour was designed to simulate medic response time from the initial injury. During the shock phase, MAP was again maintained between 30-35 mmHg in order to standardize the effect of hypotension on the injured brain.
(§3) Treatment groups are outlined in Table 1. […] In order to simulate prolonged field care (PFC) by a combat medic, three times the hemorrhage volume of NS was delivered centrally through femoral vein catheter over 1 hour using the Masterflex pump. […] To simulate delayed evacuation to definitive care after PFC, autologous packed red blood cells (pRBCs) were transfused 3 hours after the completion of shock phase at a rate of 25 mL/hr. Animals were then monitored for an additional 4 hours to simulate time in a critical care unit, after which animals were euthanized with Euthasol (sodium pentobarbital 100 mg/kg, Virbec, Fort Worth, Tex.) if the animal survived to the end of the experiment. Laboratory parameters were monitored, and electrolyte abnormalities (e.g. hyperkalemia and hypoglycemia) were corrected as needed.

histone acetylation = conditions: 150 mg/kg, at the end of a 3-hour VPA infusion; cited from earlier work
lethal models of trauma = conditions: 300-450 mg/kg; cited from earlier work
[6] = system: lethal model of polytrauma, HS and TBI; assay: Hemodynamics (MAP, adverse hemodynamic effects) in polytrauma, HS and TBI model (Example 1)
Description: as §1, §3

[7] = healthy human subjects, 140 mg/kg given over one hour; cited from earlier work
[8] = Plasma VPA levels and pharmacokinetics (Example 1); type: in vivo, swine; conditions: for Clearance / Vd: pig, in vivo, iv; for Vd: read-out: Volume of distribution (Vd); for concentration at 5 h / concentration at 3 h: swine, plasma, intravenous, plasma VPA level; for concentration at 5 h: 5 hours after VPA infusion start
Description: A separate group of sham animals underwent cannulation and line placement without infliction of polytrauma, hemorrhage or TBI for use in subsequent pharmacokinetic (PK) analysis.

[9] = system: lethal model of polytrauma, HS and TBI; assay: Serum AST and CPK in polytrauma, HS and TBI model (Example 1); type: in vivo, swine; conditions: for Serum aspartate aminotransferase (AST): 3 hours post-treatment
Procedure: as §3

[10] = system: polytrauma, hemorrhage and TBI; assay: Survival after IO or IV VPA in polytrauma, hemorrhage and TBI (Example 2); type: in vivo, swine; conditions: 150 mg/kg over 3 hours
Procedure: Animals underwent placement of femoral venous and arterial lines, a pulmonary artery catheter, and open cystostomy for invasive monitoring, hemorrhage and resuscitation. […] The abdomen was then packed, and animal flipped prone in preparation for TBI and hemorrhage. A 12 mm depth TBI was inflicted using a controlled cortical impact device, and the animal was simultaneously hemorrhaged 40% of its estimated blood volume over 20 minutes. At the completion of hemorrhage, the animal was left unresuscitated and in shock for 1 hour to simulate medic response time.
At the end of the shock phase, in order to simulate available resuscitative fluids available in a field care setting, all animals were resuscitated with normal saline via the femoral venous catheter with a standardized volume that was three times the hemorrhaged volume delivered over 1 hour. Animals were randomized to receive either a VPA administered IO (TO group) or administered IV (IV group) or to a control group. […] Placement of the needle was confirmed by aspiration of marrow and subsequent flush of 10 mL normal saline without extravasation. […] Animals were then monitored for another 4 hours to the predetermined end point. […]

[11] = system: TBI by controlled cortical impact; assay: Brain lesion size, TTC staining, controlled for time (Example 1); type: in vivo, swine; conditions: VPA 150 (150 mg/kg over 3 h); lesion volume divided by time from injury
Description: as §2

[12] = group mean of 5 VPA-treated animals
[13] = individual VPA-treated animals 1-5, dose and regimen not given
[14] = 100 mg/kg, VPA 100 (injured, 100 mg/kg over 3 h)
[15] = 150 mg/kg, VPA 150 (injured, 150 mg/kg over 3 h)

For `CCCC(CCC)C(=O)O` [VPA, valproic acid], the “Area Under Curve” value [1, 12] was 616 µg·h/mL, the “Maximum Concentration” value [1, 12] was 145 mg/L and the “Area Under Curve” value [1, 13] was 431.4 µg·h/mL and 827.6 µg·h/mL and 635.2 µg·h/mL and 521.1 µg·h/mL and 663.7 µg·h/mL. The Clearance [1, 13] was 17.4 L/h and 7.43 L/h and 9.44 L/h and 13.2 L/h and 10.9 L/h, the Half-life [1, 13] was 1.85 h and 1.65 h and 1.58 h and the “Maximum Concentration” value [1, 13] was 98.12 mg/L and 199.3 mg/L and 142.8 mg/L and 124.5 mg/L. For the same compound, the Clearance ([1]; pig, in vivo, 150 mg/kg, group mean of 5 VPA-treated animals, read-out: Clearance (converted)) was 11.2 L/h, the Half-life ([1]; pig, in vivo, 150 mg/kg, group mean of 5 VPA-treated animals, read-out: Half-life (converted)) was 1.7 h and the Half-life ([1]; pig, in vivo, 150 mg/kg, individual VPA-treated animals 1-5, dose and regimen not given, read-out: Half-life (converted)) was 1.81 h. The AUC ([2]; IV group) was 294 to 356 µg·h/mL, the AUC ([2]; other: intraosseous (IO needle in the left humeral head), IO group) was 301 to 470 µg·h/mL and the adverse hemodynamic effects [3] was “does not cause adverse hemodynamic effects”. For the same compound, the “brain lesion size and neurologic recovery” value [4] was “attenuating brain lesion size and improving neurologic recovery”, the survival ([5]; 100 mg/kg over 2 hours (faster rate of infusion)) was “improved survival” and the “survival compared to NS resuscitation” value ([5]; 100 mg/kg over 3 hours) was “did not”. The “survival compared to NS resuscitation” value ([5]; 150 mg/kg over 3 hours) was “significantly improved survival”, the survival ([5]; VPA 100: 100 mg/kg IV over 3 hours with NS resuscitation) was 0% and the survival ([5]; VPA 100 over 2 h: 100 mg/kg IV over 2 hours with NS resuscitation) was 67%. The survival ([5]; VPA 150: 150 mg/kg IV over 3 hours with NS resuscitation, survival to end of experiment) was 83%, the histone acetylation (histone acetylation) was “significant increase in histone acetylation” and the survival (lethal models of trauma) was “survival benefit”. The adverse hemodynamic effects ([6]; 100 mg/kg over 2 hours) was “without causing any adverse hemodynamic effects”, the adverse hemodynamic effects ([6]; 150 mg/kg over 3 hours) was “without causing any adverse hemodynamic effects” and the “mean arterial pressure (MAP) after the treatment” value ([6]; VPA 150 (150 mg/kg over 3 hours) versus other groups) was “tended to have a higher MAP”. For the same compound, the peak plasma level [7] was 1271 µg/mL, the Clearance ([8]; 100 mg/kg, 100 mg/kg over 2 h (injured)) was 91.7 mL/min and the Clearance [8, 14] was 68.3 mL/min. The Vd [8, 14] was 16.1 ± 3.3 L, the Vd ([8]; 150 mg/kg, Sham VPA (uninjured, 150 mg/kg over 3 h)) was 12.1 ± 6 L and the Clearance [8, 15] was 102 mL/min. The Vd [8, 15] was 24.2 ± 3.8 L, the concentration at 5 h ([8]; 100 mg/kg, VPA 100 over 2 h (injured)) was 74 µg/mL and the concentration at 3 h ([8]; 100 mg/kg, VPA 100 over 2 h (injured), three hours after start of infusion) was 115 µg/mL. For the same compound, the concentration at 3 h ([8]; 150 mg/kg, Sham VPA (uninjured, 150 mg/kg over 3 h), three hours after start of infusion (end of infusion)) was 291 µg/mL, the concentration at 5 h ([8]; 150 mg/kg, VPA 150 (injured)) was 114 µg/mL and the concentration at 3 h ([8]; 150 mg/kg, VPA 150 (injured, 150 mg/kg over 3 h), three hours after start of infusion (end of infusion)) was 175 µg/mL. The “creatine phosphokinase (CPK), group mean” value ([9]; VPA 100 (100 mg/kg over 3 h)) was 1581±321, the “Serum aspartate aminotransferase (AST)” value ([9]; VPA 100 (100 mg/kg over 3 h)) was 95±29 and the “creatine phosphokinase (CPK), group mean” value ([9]; VPA 100 over 2 h) was 927±233. The “Serum aspartate aminotransferase (AST)” value ([9]; VPA 100 over 2 h) was 101±22, the “creatine phosphokinase (CPK), group mean” value ([9]; VPA 150 (150 mg/kg over 3 h)) was 2428±1314 and the “Serum aspartate aminotransferase (AST)” value ([9]; VPA 150 (150 mg/kg over 3 h)) was 177±95. For the same compound, the “survival to the end of the experiment” value ([10]; IO group) was 100%, the “survival to the end of the experiment” value ([10]; IV group) was 100% and the “brain lesion size controlled for time” value [11] was 4.1 mm^3/min.
